Measurements taken from the NIST ThermoML archive (doi:10.1021/acs.jced.8b00037).

Test: molar heat capacity at constant volume
Details: Liquid, Vacuum adiabatic calorimetry

COC [dimethyl ether]
Details | molar heat capacity at constant volume [J/K/mol]
157.53 K, 4013 kPa | 69.69
159.72 K, 8322 kPa | 69.6
161.9 K, 12544 kPa | 69.78
164.07 K, 16672 kPa | 69.67
166.23 K, 20708 kPa | 69.85
168.38 K, 24704 kPa | 69.65
170.51 K, 28650 kPa | 69.79
172.64 K, 32529 kPa | 70.05
176.39 K, 3776 kPa | 68.85
178.57 K, 7593 kPa | 68.76
180.74 K, 11350 kPa | 68.76
182.9 K, 15062 kPa | 68.62
185.05 K, 18718 kPa | 68.78
187.2 K, 22325 kPa | 68.84
189.34 K, 25885 kPa | 68.95
191.46 K, 29382 kPa | 69
193.58 K, 32823 kPa | 69.21
200.6 K, 3313 kPa | 68.02
202.77 K, 6569 kPa | 67.99
204.93 K, 9792 kPa | 67.7
207.08 K, 12969 kPa | 68.02
209.23 K, 16115 kPa | 68
211.37 K, 19219 kPa | 68.42
213.5 K, 22288 kPa | 68.53
215.62 K, 25311 kPa | 68.58
217.74 K, 28297 kPa | 69.12
219.85 K, 31246 kPa | 69
223.34 K, 2896 kPa | 67.94
225.51 K, 5714 kPa | 67.91
227.67 K, 8494 kPa | 68.08
229.82 K, 11254 kPa | 68.44
231.97 K, 13976 kPa | 68.41
234.11 K, 16676 kPa | 68.64
236.24 K, 19342 kPa | 68.9
238.36 K, 21979 kPa | 68.71
240.48 K, 24585 kPa | 68.77
242.59 K, 27158 kPa | 69.15
244.69 K, 29702 kPa | 69.45
245.08 K, 2602 kPa | 68.32
246.78 K, 32213 kPa | 69.76
247.24 K, 5030 kPa | 68.61
249.4 K, 7443 kPa | 68.82
251.55 K, 9828 kPa | 69.15
253.7 K, 12195 kPa | 69.1
255.84 K, 14539 kPa | 69.14
257.97 K, 16865 kPa | 69.11
260.09 K, 19157 kPa | 69.43
261.13 K, 2479 kPa | 69.34
262.21 K, 21436 kPa | 69.63
263.3 K, 4661 kPa | 69.49
264.32 K, 23690 kPa | 69.84
265.47 K, 6829 kPa | 69.28
266.43 K, 25920 kPa | 69.92
267.63 K, 8973 kPa | 69.82
268.52 K, 28128 kPa | 69.96
269.79 K, 11103 kPa | 69.61
270.62 K, 30316 kPa | 69.95
271.93 K, 13210 kPa | 69.63
272.69 K, 32476 kPa | 70.7
274.07 K, 15304 kPa | 70.14
276.21 K, 17379 kPa | 70.25
278.33 K, 19435 kPa | 70.27
279.17 K, 2674 kPa | 69.72
280.45 K, 21472 kPa | 70.38
281.36 K, 4596 kPa | 69.98
282.56 K, 23487 kPa | 70.94
283.54 K, 6506 kPa | 69.97
284.67 K, 25491 kPa | 70.96
285.71 K, 8399 kPa | 70.42
286.77 K, 27476 kPa | 70.72
287.87 K, 10279 kPa | 70.77
288.86 K, 29439 kPa | 71.64
290.03 K, 12145 kPa | 71.02
290.95 K, 31396 kPa | 71.89
292.18 K, 14000 kPa | 71.24
293.04 K, 33333 kPa | 71.85
294.33 K, 15843 kPa | 71.24
296.47 K, 17674 kPa | 70.96
298.61 K, 19489 kPa | 71.48
300.73 K, 2646 kPa | 71.27
300.75 K, 21296 kPa | 71.95
302.88 K, 23091 kPa | 71.44
302.96 K, 4292 kPa | 71.08
305.01 K, 24872 kPa | 71.85
305.18 K, 5930 kPa | 71.96
307.14 K, 26644 kPa | 72.77
307.41 K, 7569 kPa | 72.11
309.27 K, 28409 kPa | 73.16
309.62 K, 9196 kPa | 71.88
311.39 K, 30163 kPa | 72.97
311.84 K, 10814 kPa | 72.56
313.52 K, 31911 kPa | 73.2
314.06 K, 12436 kPa | 72.39
315.65 K, 33651 kPa | 73
316.28 K, 14048 kPa | 72.58
318.5 K, 15656 kPa | 72.87
320.54 K, 2597 kPa | 72.71
320.74 K, 17265 kPa | 73.03
322.97 K, 18872 kPa | 73.22
323.02 K, 4128 kPa | 72.98
325.22 K, 20482 kPa | 73.26
325.5 K, 5662 kPa | 73.54
327.49 K, 22098 kPa | 73.84
328.01 K, 7206 kPa | 73.45
329.78 K, 23723 kPa | 73.46
330.53 K, 8756 kPa | 73.25
332.09 K, 25355 kPa | 73.79
333.07 K, 10311 kPa | 73.52
334.44 K, 27002 kPa | 74.11
335.63 K, 11877 kPa | 73.69
336.81 K, 28665 kPa | 74.55
338.21 K, 13448 kPa | 74.18
339.21 K, 30343 kPa | 75.43
340.82 K, 15034 kPa | 74.59
341.66 K, 32044 kPa | 75.07
343.45 K, 16629 kPa | 74.42
344.14 K, 33761 kPa | 74.99
